Patent US20240325437A1, “METHODS AND COMPOSITIONS FOR USE IN IMPROVING ADAPTIVE IMMUNITY IN THE ELDERLY POPULATION” (Technion Research & Development Foundation Limited, priority 2023, published 2024)
Entries after “also recorded” stand apart in the source; their conditions may differ. Where two headings read alike, the source gives them in different places.

Key:
[1] = tested on: CD3+ T cells derived from young mice; assay: Viability of young T cells cultured with heme or spleen extract (Zombie, flow cytometry); format: cell-based, mouse; details: for viability of T cells: with and without agent
From the text: (§1) T cell isolation and culture. T cells were harvested from mice spleens and/or lymph nodes (inguinal, axillary, brachial, mandibular, and jejunal), and purified by magnetic separation. Depending on the specific experiment, either bulk CD3^+ T cells or bulk CD3^+CD4^+ T cells or pure naïve (CD3^+CD4^+CD62L^+ CD441^lo CD25^−) T cells were purified using commercially available kits (StemCell, 19765A, 19852A, 19851A), following the manufacturer instructions. The protocol for isolating pure naïve T cells from aged mice was modified, as additional antibodies were added to the initial antibody cocktail to overcome changes in T cell population composition in the aged. Specifically, biotinylated anti-mouse/human CD44 (BioLegend, IM7), and biotinylated anti-mouse CD25 (miltenyi 130-123-860, REA568), were added to the company's premade antibody cocktail for negative selection of lymphocytes. Furthermore, the present inventors performed a step of positive selection of CD62L^+ naïve T cells, using anti-mouse CD62L microbeads (miltenyi, 130-049-701) and magnetic columns (miltenyi, 130-042-201). Primary T cells were cultured at 37° C. and 5% CO2 in RPMI media, supplemented with: 10% FBS, 10 mM Hepes, penicillin/streptomycin, and 0.035% beta-mercaptoethanol. For activation, cells were cultured on plates pre-coated (overnight at 4° C.) with anti-CD3 (2 μg/mL; clone 145-2C11, BioXCell) and anti-CD28 (4 μg/mL, clone 37.51; BioXCell). Resting cells were supplemented with 5 ng/ml recombinant murine IL-7 (PEPROTECH, 217-17). In some experiments, cell cultures were supplemented with hemin chloride (cayman, 16487), ammonium iron (III) citrate (thermos scientific, A11199.30), BSA (Sigma-Aldrich, A9647), and spleen extract, at different concentrations, as indicated in relevant experiments.
Collection of a interstitial fluid-enriched fraction (referred to as spleen extract; SE). Spleens from young or aged mice were harvested, and gently dissociated ontop of a […] cell strainer, in 5 mL PBS or RPMI, 5 min centrifugation at 1350 RPM to separate the cellular pellet from the fluidic fraction, enriched with interstitial components.
(§2) Flow cytometry. […] Intracellular ferrous iron was measured using FerroOrange (Dojindo F374).

aged T cells [2] = assay: Proliferation of aged T cells activated ex vivo (CellTrace Violet); format: cell-based, mouse; details: for aged T cells proliferation: aged T cells activated ex vivo with and without agent
From the text: as §1, §2

[3] = tested on: CD3+ T cells derived from young mice; assay: Proliferation of young T cells stimulated ex vivo with anti-CD3/anti-CD28 (cell trace violet); format: cell-based, mouse; details: with and without agent
From the text: as §1, §2

aged T cells [4] = assay: Survival of aged T cells ex vivo; format: cell-based, mouse; details: aged T cells (not shown)
Method: (§3) Flow cytometry. For cell-surface staining, cultured T cells or freshly isolated T cells were resuspended in a separation buffer (PBS containing 2% FBS and 2 mM EDTA) and incubated for 20 min, on ice, with an antibody mix, supplemented purified anti-mouse CD16/32 (Biolegend, clone 93). For intracellular staining, True-Nuclear™ Transcription Factor Buffer Set (Biolegend, 424401) was used, following the manufacturer's protocol. […] Cell viability was assessed by Zombie violet or Zombie NIR™ Fixable Viability Kits (423114, 423105, biolegend). Cell proliferation was assessed by cell trace violet proliferation kit (C34557, Invitrogen). Lysosomal activity was determined using a lysosomal intracellular activity assay kit (ab234622) according to the manufacturer's instructions. Intracellular ferrous iron was measured using FerroOrange (Dojindo F374). Cells were incubated with […] of FerroOrange in HBSS at 37° C. for 40 minutes, and analyzed by flow cytometry. For Lysotracker staining, cells were incubated with 62.5 nM of lysotracker deep red (Invitrogen L12492) in HBSS at 37° C. for 40 minutes and analyzed by flow cytometry. All data were collected on the Attune NxT Flow Cytometer (Thermo Fisher) and analyzed using FlowJo (BD).

aged T cells [5] = assay: Labile iron (FerroOrange) in aged T cells; format: cell-based, mouse
Method: as §2
Functional assays and intracellular ferrous iron staining. Intracellular ferrous iron was measured using FerroOrange (Dojindo, F374). […] All assays were analyzed by flow cytometry.

[6] = tested on: CD3+ T cells derived from the spleen of young and aged mice; assay: Ferroptosis tolerance: viability of young and aged T cells treated with RSL; format: cell-based, mouse; details: increasing doses of RSL, 48 hrs, young vs aged T cells; listed as RSL
From the text: T cell isolation and culture. T cells were harvested from mice spleens and/or lymph nodes (inguinal, axillary, brachial, mandibular, and jejunal), and purified by magnetic separation. Depending on the specific experiment, either bulk CD3^+ T cells or bulk CD3^+CD4^+ T cells or pure naïve (CD3^+CD4^+CD62L^+ CD441^lo CD25^−) T cells were purified using commercially available kits (StemCell, 19765A, 19852A, 19851A), following the manufacturer instructions. The protocol for isolating pure naïve T cells from aged mice was modified, as additional antibodies were added to the initial antibody cocktail to overcome changes in T cell population composition in the aged. Specifically, biotinylated anti-mouse/human CD44 (BioLegend, IM7), and biotinylated anti-mouse CD25 (miltenyi 130-123-860, REA568), were added to the company's premade antibody cocktail for negative selection of lymphocytes. Furthermore, the present inventors performed a step of positive selection of CD62L^+ naïve T cells, using anti-mouse CD62L microbeads (miltenyi, 130-049-701) and magnetic columns (miltenyi, 130-042-201). […]
as §2
Albumin is the most abundant heme binding protein in the serum. […] The present inventors hypothesized that the unique protein signature measured in aged T cells (FIG. 2H) allows them to survive this hostile microenvironment. […]

[7] = tested on: CD4+ and CD8+ T cells derived from the aged spleen; assay: Ferroptosis resistance to RSL3 of T cells from aged spleen after adoptive transfer; format: cell-based, mouse; details: CD4+ vs CD8+ T cells from aged spleen, TdTomato+ and TdTomato−
From the text: Adoptive T cell transfer. Young T cells were isolated from spleens of young OTII td-tomato transgenic mice (8-12 weeks-old) by magnetic isolation (StemCell), as described above. […] Two weeks following cell transfer, mice were euthanized and spleen and lymph nodes (inguinal, axillary, brachial, mandibular, and jejunal) were extracted for further analysis.
The present inventors hypothesized that ferroptosis resistance was accomplished by maintaining low cellular iron levels. To test this, FerroOrange was employed, a fluorescent probe that interacts with cellular ferrous ion (Fe^+2), to measure changes in labile iron in T cells following activation. In young T cells, labile iron pools increased as early as 9 hr post-activation and continued rising until 72 hrs (FIG. 5A). Iron levels varied across different populations as Ferro-Orange fluorescence intensity was higher in CD8^+ compared to CD4^+ T cells, pre- and post-activation (FIG. 5B). […] A major pathway for increasing cellular iron is the uptake of transferrin-bound iron, mediated by the transferrin receptor (TFR1), also known as CD71. […] In agreement with the observed differences in labile iron, CD8^+ T cells expressed higher levels of CD71 compared to CD4^+ T cells (FIG. 5F). […]

[8] = tested on: OVA-specific OTI and OTII T cells in aged recipients; details: aged mice, OVA/Alum i.p., FAC i.v. on days 1 and 3, spleen on day 5
Method: Control mice were injected with saline. […] Control mice received saline.

[9] = tested on: T cells response to vaccination; details: cited from earlier work
aged T cells [10] = tested on: aged T cells
Method: as §3

aged T cells [11] = details: 24 hr post-activation
Method: Functional assays and intracellular ferrous iron staining. Intracellular ferrous iron was measured using FerroOrange (Dojindo, F374). Following extracellular staining, cells were incubated with 1 μM of FerroOrange in HBSS at 37° C. for 30 minutes in a 5% CO2 incubator, and immediately taken for analysis. For Mitochondrial ferrous iron measurement, cells were incubated with 5 μM of Mito-FerroGreen (Dojindo, M489) in HBSS at 37° C. for 30 minutes in a 5% CO2 incubator, washed twice. […] All assays were analyzed by flow cytometry.

[12] = young T cells activated 48 hr in the presence of SE
[13] = young T cells activated 48 hr in the presence of heme

CC(=O)N(O)CCCCCNC(=O)CCC(=O)N(O)CCCCCNC(=O)CCC(=O)N(O)CCCCCN [DFO]
cell viability ([1]; young T cells cultured with spleen extract plus DFO): partially rescued cell viability

CC(=O)N[C@@H](CS)C(=O)O [NAC, N-acetyl cysteine]
aged T cells proliferation (aged T cells [2]): neither BSA nor NAC improved
proliferation [3, 12]: improved
proliferation [3, 13]: improved
viability of T cells [1, 12]: improved cell viability
viability of T cells [1, 13]: improved cell viability
aged T cells survival (aged T cells [4]): neither BSA nor NAC improved

C=C[C@H]1C[N@@]2CC[C@H]1C[C@H]2[C@H](O)c1ccnc2ccc(OC)cc12 [Quinine, quinine]
aged T cells proliferation (aged T cells [2]): rescued their proliferative capacity
labile iron pools (Ferro-Orange) (aged T cells [5]; aged CD3+ T cells cultured with quinine (15 uM)): increases labile iron pools

COC(=O)c1ccc([C@@H]2c3[nH]c4ccccc4c3C[C@@H](C(=O)OC)N2C(=O)CCl)cc1 [RSL3]
cell viability after RSL (ferroptosis tolerance) [6]: aged T cells survived even high levels of the drug; also recorded: aged T cells are significantly more tolerant to ferroptosis than young T cells
resistance to RSL3-induced ferroptosis [7]: more resistant to RSL3-induced ferroptosis

N-methyl protoporphyrin IX
proliferation (aged T cells [2]; aged T cells supplemented with FAC plus FECH inhibitor): prevented the alleviating effect on proliferation

ferric ammonium citrate [FAC]
proliferation of antigen specific CD4+ T cells (OTII) [8]: improved proliferation
proliferation of antigen specific CD8+ T cells (OTI) [8]: not affected
T cells response to vaccination ([9]; hepcidin-treated mice, in vivo administration of FAC): rescued
aged T cells proliferation (aged T cells [2]): significant improvement in proliferative capacity
CD71 expression (aged T cells [10]; FAC-supplemented aged CD8+ T cells (not shown)): the shift in CD71 expression was smaller
CD71 expression (aged T cells [10]; FAC-supplemented aged T cells): downregulation of CD71
labile iron pools (FerroOrange) (aged T cells [5]; aged T cells activated ex vivo in the presence of FAC): increased labile iron pools
mitochondrial iron pools (aged T cells [11]): replenished mitochondrial iron pools

hepcidin
T cells response to vaccination ([9]; mice treated with hepcidin): diminished

holo-transferrin: iron saturated transferrin
aged T cells proliferation (aged T cells [2]): significant improvement in proliferative capacity
